# Source: patent US20050170330A1, “Angiogensis models using nestin-expressing stem cells to image nascent blood vessels” (AntiCancer, Inc., priority 2003, published 2005)
# Assays:
# [1] = test system: B16F10 murine melanoma cells; test: Cord formation in vitro by B16F10 tumor cells; assay type: cell-based
# Source text: B16F10 murine melanoma cells are shown below to mimic endothelial cell behavior and the angiogenic process in vitro and in vivo. Cord formation in vitro by tumor cells is stimulated by hypoxia and vascular endothelial growth factor (VEGF) and inhibited by antibodies against VEGF and the VEGF KDR receptor (VEGF receptor 2).
# [2] = test system: ND-GFP vessels growing from transplanted hair follicles; test: ND-GFP vibrissa follicle transplantation into wounded nude-mouse skin, angiogenesis model; assay type: in vivo; conditions: nude mice with transplanted ND-GFP vibrissa follicles, compared with carrier-only control group
# Source text: For transplantation purposes, vibrissa follicles from ND-GFP transgenic mice is surgically obtained as discussed in Example 8. All follicles are then kept in DMEM/F-12 medium containing B-27 supplement (GIBCO/BRL).
# Recipient nude mice are anesthetized, and a sample of full-thickness skin is folded and two neighboring full-thickness wounds ˜15 mm apart are made with a 2-mm biopsy punch. ND-GFP vibrissa follicles are then transplanted. The incision is closed with nylon sutures (6-0).
# The mice are divided into an experimental group and a control group. The experimental group received a treatment series comprising vascular endothelial growth factor, a known angiogenesis promoting compound in a pharmaceutically acceptable carrier. The control group of mice receives only the carrier.
# Following treatment, samples of subcutis of the transplanted mice are subsequently excised and directly observed by fluorescence microscopy and air-dried or prepared for frozen sections for immunohistochemical staining. […]
# The mice are divided into an experimental group and a control group. The experimental group received a treatment series comprising vasoinhibin, a known angiogenesis inhibiting compound in a pharmaceutically acceptable carrier. The control group of mice receives only the carrier.
substance,measurement,setting,value
vascular endothelial growth factor,cord formation in vitro by tumor cells,[1],stimulated
same,angiogenic activity based on the amount of GFP activity,[2],higher degree of angiogenic activity
